Measurements published in ChEMBL document CHEMBL1131932, “Simplification of adenophostin A defines a minimal structure for potent glucopyranoside-based mimics of D-myo-inositol 1,4,5-trisphosphate” (Bioorg Med Chem Lett, 1999).

Species on record: Rattus norvegicus
Test: Effect on [Ca2+] efflux in rat hepatocytes
Assay type: functional
Conditions: Hepatocyte

| SMILES | EC50 [nM] |
| --- | --- |
| O=P(O)(O)O[C@@H]1[C@H](O)[C@@H](O[C@@H]2COC[C@@H]2OP(=O)(O)O)O[C@@H](CO)[C@H]1OP(=O)(O)O | 194 |
| O=P(O)(O)O[C@@H]1[C@H](O)[C@H](O)[C@@H](OP(=O)(O)O)[C@H](OP(=O)(O)O)[C@H]1O [INS(1,4,5)P3] | 329 |
